Assay results: US20250304563A1, “ACTIVATORS OF EFFECTOR T CELLS” (Orum Therapeutics, Inc., priority 2022, published 2025)

Experiments:
[1] = test system: Human primary T cells; assay: T cell activation: secreted IL-2; type: cell-based; conditions: 48 hours, fold over background normalized to Compound 141A; for IL-2 1 nM: 1 nM compound; for IL-2 10 nM: 10 nM compound; for IL-2 100 nM: 100 nM compound
Method in brief: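 IL-2 values are fold over anti-CD3/CD28 background, normalized to a reference compound and sorted into ranges. They come from supernatants of human pan-T cells captured on anti-CD3-coated plates and exposed 48 h, 37° C., to duplicate compound dilutions, measured with cytometric beads.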

[2] = test system: Human primary T cells; assay: T cell activation: secreted IFN-y; type: cell-based; conditions: 48 hours, fold over background normalized to Compound 141A; for IFN-y 1 nM: 1 nM compound; for IFN-y 10 nM: 10 nM compound; for IFN-y 100 nM: 100 nM compound
Method in brief: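 Values are binned ranges (A–D) of fold increase over anti-CD3/CD28 background, normalized to a reference compound, for IFN-γ in supernatants measured by bead array. Pan-T cells from donor PBMC or LeukoPaks were stimulated on anti-CD3-coated wells (10 μg/mL coating) in serum-free medium with compound for 48 h at 37 °C.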

[3] = test system: Human primary T cells; assay: T cell activation: CD69 surface expression by flow cytometry; type: cell-based; conditions: fold over anti-CD3 stimulated background normalized to Compound 141A; for CD69 1 nM: 1 nM compound; for CD69 10 nM: 10 nM compound; for CD69 100 nM: 100 nM compound
Method in brief: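 Read-out is flow-cytometric CD69 surface staining, expressed as fold increase over anti-CD3-stimulated background and normalized to Compound 141A. Human pan T cells from PBMC or LeukoPaks were plated on OKT3-coated wells in serum-free XVivo-15. Compound dilutions were added for 48 h at 37° C, 5% CO2.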

[4] = test system: human peripheral blood pan-T cells; assay: T cell activation by small molecule inhibitors of Cbl-b (biomarker flow cytometry); type: cell-based; conditions: 10 μM, 48 hours
Description: Cryopreserved human peripheral blood pan-T cells (StemCell, 70024) were defrosted and resuspended in Immunocult-XF T cell Expansion Medium (StemCell, 10981). Cells were plated at 8×10^5 cells per well in 24 well plates, in presence or absence of pre-coated anti-CD3 (OKT3) antibody (ThermoFisher, 16-0037-85). Pre-coating of plates was done by diluting anti-CD3 antibody to 10 μg/mL in PBS and adding 1 ml to each well. Plates were incubated at 4° C. overnight or at 37° C. for 2 hours and washed once with PBS before use. Dilution of each small molecule cbl-b inhibitor was added. Untreated cell was used as a control. Plates were incubated for 48 hours at 37° C. with 5% CO2. T cells were fixed and permeabilized with Intracellular Fixation & Permeabilization Buffer Set (ThermoFisher, 88-8824), and continuously stained with one of PE-conjugated antibody listed in Table 10. Stained T cells were then analyzed with by flow cytometry (ThermoFisher Attune NxT). The percent of positive cells of each treated group was normalized with untreated cell and sorted into bins as follows: fold over background values from 10 to 14.9: range “A;” values from 5.0 to 9.9: range “B;” values from 2.0 to 4.9: range “C;” and values from 0.1 to 1.9: range “D.” Only for Notch1, geometric mean was used.

[5] = molecular target: Cbl-b (36-427 aa truncated form, N-terminus Avi-tag) (Homo sapiens (Human), UniProt Q13191); assay: Cbl-b binding: TR-FRET displacement of BODIPY-FL probe
Method in brief: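 IC50 from loss of terbium–BODIPY-FL TR-FRET signal as compounds compete off a fluorescent Cbl-b inhibitor probe (1 uM) for 1 h at RT. Protein: N-Avi-tagged human Cbl-b 36-427 on streptavidin-terbium, 20 mM HEPES pH 7.5 buffer.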

[6] = +CD3 (pre-coated anti-CD3 OKT3)

Sequence of Cbl-b (36-427 aa truncated form, N-terminus Avi-tag) (Q13191 36-427): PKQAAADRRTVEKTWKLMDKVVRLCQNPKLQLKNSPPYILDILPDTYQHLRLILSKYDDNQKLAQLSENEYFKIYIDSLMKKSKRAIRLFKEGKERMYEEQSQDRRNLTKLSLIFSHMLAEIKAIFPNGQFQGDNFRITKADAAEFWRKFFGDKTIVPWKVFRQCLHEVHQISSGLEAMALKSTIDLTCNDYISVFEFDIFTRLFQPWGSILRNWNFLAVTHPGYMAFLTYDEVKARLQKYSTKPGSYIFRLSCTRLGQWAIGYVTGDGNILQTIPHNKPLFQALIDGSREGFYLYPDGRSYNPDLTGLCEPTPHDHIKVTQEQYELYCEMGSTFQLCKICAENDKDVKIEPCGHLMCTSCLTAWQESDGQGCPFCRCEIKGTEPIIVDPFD

Row | IC50 [5] [nM] | Compound | IL-2 1 nM [1] | IL-2 10 nM [1] | IL-2 100 nM [1] | IFN-y 1 nM [2] | IFN-y 10 nM [2] | CD69 1 nM [3] | CD69 10 nM [3] | CD69 100 nM [3] | Notch 1, geometric mean normalized with untreated cell (fold over background) [4, 6] | pCD3zeta, percent of positive cells normalized with untreated cell (fold over background) [4, 6] | pHS1, percent of positive cells normalized with untreated cell (fold over background) [4, 6] | pLYN, percent of positive cells normalized with untreated cell (fold over background) [4, 6] | pPLCg1, percent of positive cells normalized with untreated cell (fold over background) [4, 6] | pPLCg2, percent of positive cells normalized with untreated cell (fold over background) [4, 6] | pZAP70, percent of positive cells normalized with untreated cell (fold over background) [4, 6] | Notch 1, geometric mean normalized with untreated cell (fold over background) ([4]; −CD3) | pCD3zeta, percent of positive cells normalized with untreated cell (fold over background) ([4]; −CD3) | pHS1, percent of positive cells normalized with untreated cell (fold over background) ([4]; −CD3) | IFN-y 100 nM [2] | also measured
1 |  | CC1CC(c2cc(NCCC#N)nc(N3Cc4c(cc(CN5CCC[C@H](C)C5)cc4C(F)(F)F)C3=O)c2)(c2nncn2C)C1 (stereo partly drawn) [Compound 192, 3-{[6-(6-{[(3S)-3-methylpiperidin-1-yl]methyl}-1-oxo-4-(trifluoromethyl)-3H-isoindol-2-yl)-4-[(1r,3s)-3-methyl-1-(4-methyl-1,2,4-triazol-3-yl)cyclobutyl]pyridin-2-yl]amino}propanenitrile] | D (values between 0.01 and 0.09: range “D.”) | B (values between 0.31 and 0.79: range “B”) | X (fold over background values between 1.41 and 1.8: range “X”) | B (values between 0.31 and 1.00: range “B;”) | B (values between 0.31 and 1.00: range “B;”) | C (values between 0.30 and 0.60: range “C”) | A (values between 0.81 and 1.10: range “A”) | X (fold over background values between 1.11 and 1.6: range “X”) | C (values from 2.0 to 4.9: range “C;”) | D (values from 0.1 to 1.9: range “D.”) | C (values from 2.0 to 4.9: range “C;”) | D (values from 0.1 to 1.9: range “D.”) | C (values from 2.0 to 4.9: range “C;”) | D (values from 0.1 to 1.9: range “D.”) | C (values from 2.0 to 4.9: range “C;”) | D (values from 0.1 to 1.9: range “D.”) | C (values from 2.0 to 4.9: range “C;”) | A (fold over background values from 10 to 14.9: range “A;”) |  | pLYN, percent of positive cells normalized with untreated cell (fold over background) ([4]; −CD3): C (values from 2.0 to 4.9: range “C;”); pPLCg1, percent of positive cells normalized with untreated cell (fold over background) ([4]; −CD3): B (values from 5.0 to 9.9: range “B;”); pPLCg2, percent of positive cells normalized with untreated cell (fold over background) ([4]; −CD3): A (fold over background values from 10 to 14.9: range “A;”); pZAP70, percent of positive cells normalized with untreated cell (fold over background) ([4]; −CD3): C (values from 2.0 to 4.9: range “C;”)
2 | 1 to 5 | CCNc1cc(C2(Cc3nncn3C)COC2)cc(N2Cc3c(SC)cc(CN4CCC[C@H](C)C4)cc3C2=O)n1 [Compound 126, 2-[6-(ethylamino)-4-{3-[(4-methyl-1,2,4-triazol-3-yl)methyl]oxetan-3-yl}pyridin-2-yl]-6-{[(3S)-3-methylpiperidin-1-yl]methyl}-4-(methylsulfanyl)-3H-isoindol-1-one] | C (values between 0.10 and 0.30: range “C”) | B (values between 0.31 and 0.79: range “B”) | A (between 0.80 and 1.40: range “A”) | B (values between 0.31 and 1.00: range “B;”) | B (values between 0.31 and 1.00: range “B;”) |  | A (values between 0.81 and 1.10: range “A”) | A (values between 0.81 and 1.10: range “A”) | C (values from 2.0 to 4.9: range “C;”) | D (values from 0.1 to 1.9: range “D.”) | C (values from 2.0 to 4.9: range “C;”) | D (values from 0.1 to 1.9: range “D.”) | C (values from 2.0 to 4.9: range “C;”) | D (values from 0.1 to 1.9: range “D.”) | C (values from 2.0 to 4.9: range “C;”) | D (values from 0.1 to 1.9: range “D.”) | C (values from 2.0 to 4.9: range “C;”) | B (values from 5.0 to 9.9: range “B;”) | A (fold over background between 1.10 and 2.00: range “A”) | pLYN, percent of positive cells normalized with untreated cell (fold over background) ([4]; −CD3): C (values from 2.0 to 4.9: range “C;”); pPLCg1, percent of positive cells normalized with untreated cell (fold over background) ([4]; −CD3): C (values from 2.0 to 4.9: range “C;”); pPLCg2, percent of positive cells normalized with untreated cell (fold over background) ([4]; −CD3): B (values from 5.0 to 9.9: range “B;”); pZAP70, percent of positive cells normalized with untreated cell (fold over background) ([4]; −CD3): C (values from 2.0 to 4.9: range “C;”)
3 | 1 to 5 | CSc1cc(CN2CCC[C@H](C)C2)cc2c1CN(c1cccc([C@]3(c4nncn4C)C[C@H](C)C3)c1)C2=O [Compound 150, 6-{[(3S)-3-methylpiperidin-1-yl]methyl}-4-(methylsulfanyl)-2-{3-[(1r,3s)-3-methyl-1-(4-methyl-1,2,4-triazol-3-yl)cyclobutyl]phenyl}-3H-isoindol-1-one] | D (values between 0.01 and 0.09: range “D.”) | C (values between 0.10 and 0.30: range “C”) | B (values between 0.31 and 0.79: range “B”) | B (values between 0.31 and 1.00: range “B;”) | B (values between 0.31 and 1.00: range “B;”) | C (values between 0.30 and 0.60: range “C”) | C (values between 0.30 and 0.60: range “C”) | A (values between 0.81 and 1.10: range “A”) |  |  |  |  |  |  |  |  |  |  | A (fold over background between 1.10 and 2.00: range “A”) | 
4 | 5.01 to 20 | CCNc1cc(C2(Cc3nncn3C)COC2)cc(N2Cc3c(cc([C@H](CSC)N4CCC[C@H](C)C4)cc3C(F)(F)F)C2=O)n1 [Compound 141A, 2-[6-(ethylamino)-4-{3-[(4-methyl-1,2,4-triazol-3-yl)methyl]oxetan-3-yl}pyridin-2-yl]-6-[(1R)-1-[(3S)-3-methylpiperidin-1-yl]-2-(methylsulfanyl)ethyl]-4-(trifluoromethyl)-3H-isoindol-1-one] | B (values between 0.31 and 0.79: range “B”) | B (values between 0.31 and 0.79: range “B”) | A (between 0.80 and 1.40: range “A”) | B (values between 0.31 and 1.00: range “B;”) | B (values between 0.31 and 1.00: range “B;”) |  | A (values between 0.81 and 1.10: range “A”) | A (values between 0.81 and 1.10: range “A”) |  |  |  |  |  |  |  |  |  |  | A (fold over background between 1.10 and 2.00: range “A”) | 
